From patent publication US10265342B2, “Sustained-release composition, method for fabricating, and use thereof” (NATIONAL TSING HUA UNIVERSITY, priority 2017, dated 2019)

Tests used:
[1] = cited from earlier work
[2] = tested on: hindlimb ischemia (ligation of femoral artery); assay: mouse hindlimb ischemia model; format: in vivo, BALB/c mice; conditions: intramuscular injection into quadriceps muscle
Protocol: As mentioned above, the sustained-release composition can be applied for promoting angiogenesis in ischemic tissues. Thus, the effect of such the use will be further evaluated through a mouse hindlimb ischemia model and utilizes the sustained-release composition of the 1st embodiment of the present disclosure. In the present disclosure, all animal experimentation processes are performed according to an animal care and use guideline promulgated by Council of Agriculture, Executive Yuan, R.O.C. (Taiwan). In particular, BALB/c mice are served as a platform for developing the animal model. In the beginning, for each of the mice, 2 L/min of oxygen and 4% inhaled isoflurane are provided into an anesthesia box to introduce a general anesthesia in the mouse under room temperature, and the mouse is intubated and supplied by 3% isoflurane continuously. After a medial thigh area of the mouse is cut by a scalpel, the mouse is subjected by ligation of upper end and lower end of femoral artery to simulate hindlimb ischemia.
Subsequently, an intramuscular injection is performed into the quadriceps muscle adjacent to the proximal ligation site. The abovementioned mice can be divided into four groups according to the treatment. In details, the mice of Group 1 are only injected with physiological saline. […] The mice of Group 4 are injected with the sustained-release composition of the 1st embodiment. […]

C=CCSSSCC=C [free diallyl trisulfide, diallyl trisulfide]
half-life in aqueous solution [1]: around 15 minutes
hindlimb kept or lost after fourteen days [2]: lose its hindlimb
muscle atrophy of the hindlimb ([2]; fourteen days): slighter than that of the mice of Group 1 and Group 3
